Laboratory results: patent US10294202B2, “Pyrrolidinones as herbicides” (FMC Corporation, priority 2013, dated 2019)

Key:
nutsedge, yellow = assay: Test C pre-/postemergence herbicide test; type: in vivo, Cyperus esculentus
How it was run: (§1)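 Plants grown and held in a greenhouse for 13 to 15 days post-spray, then rated 0–100 by visual comparison with controls. Pre treatments targeted seeds in loam and sand; post treatments targeted 1- to 4-leaf plants in peat-based potting medium.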

sedge, umbrella = assay: Test B flooded paddy test; type: in vivo, Cyperus difformis; conditions: 1000 g ai/ha, Flood; scale of 0 to 100 where 0 is no effect and 100 is complete control
How it was run: (§2)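 Scored visually 0–100 (0 no effect, 100 complete control) versus controls after 13 to 15 greenhouse days. Treatment: compound added to paddy water kept 3 cm above soil, on 2-leaf-stage plants.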

giant foxtail = assay: Test A pre-/postemergence herbicide test; type: in vivo, Setaria faberii
How it was run: (§3)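 Approximately 10 days after treatment in the greenhouse, plants were compared with untreated controls and given a 0–100 visual injury rating. Applications: preemergence directed soil spray; postemergence on 2–10 cm plants at the one- to two-leaf stage.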

lambsquarters = assay: Test C pre-/postemergence herbicide test; type: in vivo, Chenopodium album
How it was run: as §1

velvetleaf = assay: Test C pre-/postemergence herbicide test; type: in vivo, Abutilon theophrasti
How it was run: as §1

corn = assay: Test A pre-/postemergence herbicide test; type: in vivo, Zea mays; conditions: Postemergence
How it was run: as §3

foxtail, giant = assay: Test C pre-/postemergence herbicide test; type: in vivo, Setaria faberii
How it was run: as §1

rice = assay: Test B flooded paddy test; type: in vivo, Oryza sativa; conditions: 1000 g ai/ha, Flood; scale of 0 to 100 where 0 is no effect and 100 is complete control
How it was run: as §2

morningglory = assay: Test C pre-/postemergence herbicide test; type: in vivo, Ipomoea coccinea
How it was run: as §1

barnyardgrass = assay: Test A pre-/postemergence herbicide test; type: in vivo, Echinochloa crus-galli
How it was run: as §3

wheat (winter wheat) = assay: Test C pre-/postemergence herbicide test; type: in vivo, Triticum aestivum
How it was run: as §1

[1] = Postemergence, 31 g ai/ha, scale 0 (no effect) to 100 (complete control)
[2] = Postemergence, 62 g ai/ha, scale 0 to 100 (0 no effect, 100 complete control)
[3] = Postemergence, 125 g ai/ha, scale 0 to 100 (0 no effect, 100 complete control)
[4] = Postemergence, 250 g ai/ha, scale 0 to 100 (0 no effect, 100 complete control)
[5] = Preemergence, 31 g ai/ha, scale 0 to 100, 0 is no effect and 100 is complete control
[6] = Preemergence, 62 g ai/ha, scale 0 to 100
[7] = Preemergence, 125 g ai/ha, scale 0 to 100 (0 no effect, 100 complete control)
[8] = Postemergence, 125 g ai/ha, 0 to 100 scale, 0 no effect, 100 complete control
[9] = Postemergence, 500 g ai/ha, 0 to 100 scale (0 no effect, 100 complete control)
[10] = Preemergence, 125 g ai/ha, visual rating on 0 to 100 scale (0 no effect, 100 complete control)

Cc1ccccc1NC(=O)C1C(=O)NCC1c1cccc(C(F)(F)F)c1 (racemic) [Compound 109]
Plant response rating, Nutsedge, Yellow (nutsedge, yellow; [1]): 0
Plant response rating, Nutsedge, Yellow (nutsedge, yellow; [2]): 0
Plant response rating, Nutsedge, Yellow (nutsedge, yellow; [3]): 0
Plant response rating, Nutsedge, Yellow (nutsedge, yellow; [4]): 0
Nutsedge, Yellow plant response rating (nutsedge, yellow; [5]): 0
Plant response rating, Nutsedge, Yellow (nutsedge, yellow; [6]): 5
Plant response rating, Nutsedge, Yellow (nutsedge, yellow; [7]): 0
Plant response rating (scale of 0 to 100), Nutsedge, Yellow (nutsedge, yellow; Preemergence, 250 g ai/ha): 5
Plant response rating, Sedge, Umbrella (sedge, umbrella): 80
Plant response rating, Foxtail, Giant (giant foxtail; [8]): 90
Plant response rating, Foxtail, Giant (giant foxtail; [9]): 90
Foxtail, Giant plant response rating (giant foxtail; [10]): 90
Plant response rating, Foxtail, Giant (giant foxtail; preemergence, 500 g ai/ha, 0 to 100 scale): 90
Plant response rating, Lambsquarters (lambsquarters; [1]): 0
Plant response rating, Lambsquarters (lambsquarters; [2]): 0
Plant response rating, Lambsquarters (lambsquarters; [3]): 0
Plant response rating, Lambsquarters (lambsquarters; [4]): 5
Lambsquarters plant response rating (lambsquarters; [5]): 0
Plant response rating, Lambsquarters (lambsquarters; [6]): 0
Plant response rating, Lambsquarters (lambsquarters; [7]): 5
Plant response rating (scale of 0 to 100), Lambsquarters (lambsquarters; Preemergence, 250 g ai/ha): 0
Plant response rating, Velvetleaf (velvetleaf; [1]): 0
Plant response rating, Velvetleaf (velvetleaf; [2]): 0
Plant response rating, Velvetleaf (velvetleaf; [3]): 0
Plant response rating, Velvetleaf (velvetleaf; [4]): 5
Velvetleaf plant response rating (velvetleaf; [5]): 0
Plant response rating, Velvetleaf (velvetleaf; [6]): 0
Plant response rating, Velvetleaf (velvetleaf; [7]): 0
Plant response rating (scale of 0 to 100), Velvetleaf (velvetleaf; Preemergence, 250 g ai/ha): 10
Plant response rating, Corn (corn; 125 g ai/ha, 0 to 100 scale, 0 no effect, 100 complete control): 50
Plant response rating, Corn (corn; 500 g ai/ha, 0 to 100 scale (0 no effect, 100 complete control)): 80
Plant response rating, Foxtail, Giant (foxtail, giant; [1]): 60
Plant response rating, Foxtail, Giant (foxtail, giant; [2]): 15
Plant response rating, Foxtail, Giant (foxtail, giant; [3]): 50
Plant response rating, Foxtail, Giant (foxtail, giant; [4]): 70
Foxtail, Giant plant response rating (foxtail, giant; [5]): 90
Plant response rating, Foxtail, Giant (foxtail, giant; [6]): 95
Plant response rating, Foxtail, Giant (foxtail, giant; [7]): 98
Plant response rating (scale of 0 to 100), Foxtail, Giant (foxtail, giant; Preemergence, 250 g ai/ha): 100
Plant response rating, Rice (rice): 0
Plant response rating, Morningglory (morningglory; [1]): 20
Plant response rating, Morningglory (morningglory; [2]): 0
Plant response rating, Morningglory (morningglory; [3]): 5
Plant response rating, Morningglory (morningglory; [4]): 15
Morningglory plant response rating (morningglory; [5]): 0
Plant response rating, Morningglory (morningglory; [6]): 0
Plant response rating, Morningglory (morningglory; [7]): 5
Plant response rating (scale of 0 to 100), Morningglory (morningglory; Preemergence, 250 g ai/ha): 30
Plant response rating, Barnyardgrass (barnyardgrass; [8]): 90
Plant response rating, Barnyardgrass (barnyardgrass; [9]): 90
Barnyardgrass plant response rating (barnyardgrass; [10]): 80
Plant response rating, Barnyardgrass (barnyardgrass; preemergence, 500 g ai/ha, 0 to 100 scale (0 no effect, 100 complete control)): 90
Plant response rating, Wheat (wheat (winter wheat); [1]): 0
Plant response rating, Wheat (wheat (winter wheat); [2]): 0
Plant response rating, Wheat (wheat (winter wheat); [3]): 0
Plant response rating, Wheat (wheat (winter wheat); [4]): 0
Wheat plant response rating (wheat (winter wheat); [5]): 0
Plant response rating, Wheat (wheat (winter wheat); [6]): 10
Plant response rating, Wheat (wheat (winter wheat); [7]): 50
Plant response rating (scale of 0 to 100), Wheat (wheat (winter wheat); Preemergence, 250 g ai/ha): 85
